Reference: article PMC12029531, “Selenium in Action: Exploring the Biological Wonders of Hydroselenite Salts” (Molecules, 2025)

experiment: Water solubility by 1H-qNMR in D2O; assay type: physicochemical; details: 298 K

**Q.** With `COc1cc(Cc2cnc(N)nc2N)cc(OC)c1OC` [AB-2, trimethoprim] as the compound, how does the “Water Solubility” value read?
**A.** 284 µg/mL

**Q.** Which “Water Solubility” value does the source give for `Nc1ccc(S(=O)(=O)Nc2ncccn2)cc1` [AB-4, sulfadiazine] here?
**A.** 112 µg/mL

**Q.** For `NNC(=O)c1ccncc1` [AB-5, isoniazid], which “Water Solubility” value is on record?
**A.** 5350 µg/mL
